Data on one compound can be found in patent US20210220376A1, “ADDICTION TREATMENT OF AN ALCOHOL-CONSUMING PATIENT POPULATION” (Amygdala Neurosciences, Inc., priority 2018, published 2021).

Data set [1] in a line: Phase 1 study of compound (2) with ethanol: pharmacokinetics of compound (1) and breath alcohol. As to conditions: after repeated EtOH administration. The text has this: Plasma concentrations of compound (1) and BrAC were summarized and listed by treatment, subject and timepoint. Pharmacokinetic parameters derived for compound (1) were also summarized and listed by treatment and subject. Pharmacokinetic parameters were estimated using a non-compartmental approach with a log-linear terminal phase assumption. The trapezoidal rule was used to estimate the area under the curve (linear trapezoidal linear interpolation) and the terminal phase will be estimated by maximizing the coefficient of determination estimated from the log-linear regression model. However, AUC0-∞, AUClast/∞, λz and t1/2 parameters were to be estimated for individual concentration-time profiles only when the terminal log-linear phase could be reliably characterized.
Proportionality analysis was done using a power model. The power model was defined as: […]
A linear model with ln-transformed dose as a continuous effect was fitted. A point estimate and a 90% CI was derived for the slope (β). The parameter could be considered to be dose proportional if the 90% confidence interval of the slope β was within [1+ln(0.8)/ln(r), 1+ln(1.25)/ln(r)], where r=the highest dose studied/the lowest dose (Smith et al., “Confidence interval criteria for assessment of dose proportionality.” Pharm Res. 17 (10):1278-83 (2000)).

Another data set deals with T1, human ALDH-2 enzyme (Homo sapiens, UniProt P05091).
T1 sequence (P05091 18-517): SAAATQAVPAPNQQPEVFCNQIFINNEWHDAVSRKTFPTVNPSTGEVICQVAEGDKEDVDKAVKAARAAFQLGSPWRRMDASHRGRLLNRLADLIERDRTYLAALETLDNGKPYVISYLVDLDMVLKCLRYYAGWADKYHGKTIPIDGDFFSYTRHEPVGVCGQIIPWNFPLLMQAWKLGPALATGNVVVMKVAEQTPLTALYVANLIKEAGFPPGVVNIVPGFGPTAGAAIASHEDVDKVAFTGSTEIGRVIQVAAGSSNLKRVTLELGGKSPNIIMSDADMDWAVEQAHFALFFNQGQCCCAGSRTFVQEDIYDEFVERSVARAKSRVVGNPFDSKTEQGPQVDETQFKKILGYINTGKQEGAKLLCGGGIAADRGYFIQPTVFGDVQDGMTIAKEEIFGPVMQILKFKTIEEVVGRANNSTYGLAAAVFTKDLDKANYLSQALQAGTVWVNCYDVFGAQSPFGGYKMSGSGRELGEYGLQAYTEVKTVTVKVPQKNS
Conditions: read-out: IC50 ALDH-2; cited from earlier work.

Some results are limits rather than exact numbers.

One may read the IC50 as the midpoint of a concentration-inhibition curve. In the case of `O=C(NCc1ccc(-c2ccn(COP(=O)(O)O)c(=O)c2)cc1)c1c(Cl)cccc1Cl` [Compound (2), phosphoric acid mono-(4-{4-[(2,6-dichloro-benzoylamino)-methyl]-phenyl}-2-oxo-2H-pyridin-1-ylmethyl) ester], the “peak breath alcohol concentrations compared with placebo” value in data set [1] is “slightly higher”. In addition, the IC50 on human ALDH-2 enzyme was above 10 µM.
